In brackets after ≈: the same amount, converted by molar mass.
What was measured:
Staphylococcus aureus = experiment: Antibacterial activity against Staphylococcus aureus ATCC 6538; type: functional
[1] = Cytotoxicity against human F1 cells after 48 hrs; type: cell-based; settings: F1, 48 h
MCF7 = experiment: Cytotoxicity against MCF7 cells after 48 hrs; type: cell-based; settings: Homo sapiens, MCF7, 48 h

| MIC (Staphylococcus aureus) [µM] | Compound | IC50 [1] [nM] | IC50 (MCF7) [nM] |
| --- | --- | --- | --- |
| 100 (≈ 80.9 µg/mL) | C[C@H]1CCCCC(CCCC(Cl)Cl)c2c(O)cc(cc2O)[C@H](OC(N)=O)[C@@H](C)CCCCC(CCCC(Cl)Cl)c2c(O)cc(cc2O)[C@@H]1OC(N)=O (some centres undefined) [CARBAMIDOCYCLOPHANE A] | 3300 | 860 |
| 40 (≈ 31 µg/mL) | C[C@H]1CCCCC(CCCCCl)c2c(O)cc(cc2O)[C@H](OC(N)=O)[C@@H](C)CCCCC(CCCC(Cl)Cl)c2c(O)cc(cc2O)[C@@H]1OC(N)=O (some centres undefined) [CARBAMIDOCYCLOPHANE B] | 4200 | 1800 |
| 60 (≈ 44.4 µg/mL) | CCCCC1CCCC[C@H](C)[C@@H](OC(N)=O)c2cc(O)c(c(O)c2)C(CCCC(Cl)Cl)CCCC[C@H](C)[C@@H](OC(N)=O)c2cc(O)c1c(O)c2 (some centres undefined) [CARBAMIDOCYCLOPHANE C] | 5100 | 2200 |

Source: ChEMBL document CHEMBL1142108, “Carbamidocyclophanes A-E, chlorinated paracyclophanes with cytotoxic and antibiotic activity from the Vietnamese cyanobacterium Nostoc sp” (J Nat Prod, 2007)
